In patent US11814364B2, “Pyridine N-oxide derivatives useful as factor XIa inhibitors” (Janssen Pharmaceutica NV, priority 2021, dated 2023):

Target: human plasma kallikrein (Homo sapiens, UniProt P03952)
Assay: Kallikrein inhibition FLINT assay with quenched AMC peptide substrate Z-Gly-Pro-Arg-AMC (end point EP or kinetic KIN reads)
Assay type: biochemical
Conditions: kinetic reads at 5 min intervals over 30 min; read-out: Kallikrein (KIN) IC50
Description: A fluorescence intensity (FLINT) based assay was used to monitor inhibition of human plasma kallikrein.
The Kallikrein FLINT assay was used with the following Z-Gly-Pro-Arg-AMC assay buffer: 50 mM Tris, pH 7.5, 100 mM NaCl, 5 mM CaCl2, 0.1 mg/mL BSA, 0.03% CHAPS. Assay buffer was prepared by mixing all ingredients fresh. 2× Z-Gly-Pro-Arg-AMC peptide substrate was prepared by diluting 10 mM stock into 1× assay buffer for a 100 μM working concentration (50 μM final concentration).
Test compound(s) were run in an 11-point, 3-fold serial dilution with a final top compound concentration of 1 μM. Final DMSO in assay was 2%. Plasma kallikrein was pre-incubated for 30-minute with compound and then 50 μM substrate was added to initiate the reaction. The assay was run with either end point (EP) reads at 30 min or kinetic (KIN) reads at 5 min intervals over 30 minutes.
Percent inhibition (IC50) curves were generated per compound tested, and data was analyzed using a 4-parameter logistic fit using GeneData Screener. The relative fluorescence unit (RFU) values were normalized to percent inhibition using the following equation: % inhibition=((HC−LC)−(compound−LC)/(HC−LC))*100
An 11-point dose response curve for the test compound(s) was generated using GENDATA to determine IC50 value based on the following equation: Y=Bottom+(Top−Bottom)/(1+10^((log IC50−X)*HillSlope))
Results listed in columns with […] designation were measured using endpoint reads where a single fluorescence reading was measured for each well at a 30 min timepoint.

Chain of human plasma kallikrein (P03952 391-638 limits assumed): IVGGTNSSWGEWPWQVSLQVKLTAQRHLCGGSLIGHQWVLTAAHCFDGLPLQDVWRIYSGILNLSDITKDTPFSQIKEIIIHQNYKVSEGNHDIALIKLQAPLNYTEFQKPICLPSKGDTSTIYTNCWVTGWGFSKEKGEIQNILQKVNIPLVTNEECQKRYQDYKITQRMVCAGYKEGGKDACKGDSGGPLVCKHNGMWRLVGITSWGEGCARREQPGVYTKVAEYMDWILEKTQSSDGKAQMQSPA
Chain of human plasma kallikrein (P03952 20-390 partner limits assumed): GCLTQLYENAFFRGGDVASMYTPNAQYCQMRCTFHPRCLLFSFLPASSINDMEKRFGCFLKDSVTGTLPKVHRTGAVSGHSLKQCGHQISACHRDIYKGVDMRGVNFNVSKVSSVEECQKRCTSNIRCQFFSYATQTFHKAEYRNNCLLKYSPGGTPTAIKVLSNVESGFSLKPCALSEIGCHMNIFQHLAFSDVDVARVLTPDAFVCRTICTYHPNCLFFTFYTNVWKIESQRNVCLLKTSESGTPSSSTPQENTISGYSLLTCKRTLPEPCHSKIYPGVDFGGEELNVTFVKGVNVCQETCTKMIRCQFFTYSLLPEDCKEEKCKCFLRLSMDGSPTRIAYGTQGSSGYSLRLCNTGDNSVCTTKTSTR

Point of comparison: COC(C)(C)C[C@H](c1ccc(-c2c(-n3cnnn3)ccc(Cl)c2F)c[n+]1[O-])n1cc(-c2ccnn2C(F)F)cn1 [Example P646], IC50 506 nM. Against it:
- O=C(O)c1ccc(-c2cnn(C(Cc3ccn(C(F)F)n3)c3ccc(-c4c(-n5cc(Cl)nn5)ccc(Cl)c4F)c[n+]3[O-])c2)cc1 (single isomer, unassigned) [Example P898] — 200-fold lower, 2.5 nM
- [O-][n+]1cc(-c2c(-n3cnnn3)ccc(Cl)c2F)ccc1C(CC1CC1)n1cc(-c2ccnc(C(F)(F)F)n2)cn1 (centres unmarked) [Example P295] — within 1.5-fold, 385 nM
- [O-][n+]1cc(-c2c(-n3cc(Cl)nn3)ccc(Cl)c2F)ccc1[C@@H](CCOC(F)F)n1cc(-c2ncnn2C(F)F)cn1 [Example P683] — 17-fold lower, 29.5 nM
- Cc1ncn(-c2cnn([C@H](CCOC(F)F)c3ccc(-c4c(-n5cc(C(F)(F)F)nn5)ccc(Cl)c4F)c[n+]3[O-])c2)n1 [Example P823] — within 1.5-fold, 566 nM
- O=C(NC1CC1)c1ccc(-c2cnn(C(CC3CCCCO3)c3ccc(-c4c(-n5cnnn5)ccc(Cl)c4F)c[n+]3[O-])c2)cc1 (single isomer, unassigned) [Example P77] — 14-fold lower, 36.2 nM
- [O-][n+]1cc(-c2c(-n3cnnn3)ccc(Cl)c2F)ccc1C(Cn1cccn1)n1cc(-c2ccnc(C(F)F)c2)cn1 (centres unmarked) [Example P318] — 36-fold lower, 13.9 nM
- Cn1cc(CC(c2ccc(-c3c(C(F)F)ccc(Cl)c3F)c[n+]2[O-])n2cc(-c3cnnn3C)cn2)cn1 (single isomer, unassigned) [Example Q42] — 11-fold lower, 44.3 nM
- [O-][n+]1cc(-c2c(-n3cnnn3)ccc(Cl)c2F)ccc1[C@@H](CCOC(F)F)n1cc(-c2c(F)cncc2Cl)cn1 [Example P583] — 340-fold lower, 1.5 nM
- NC(=O)c1ccc(-c2cnn(C(CCOC(F)F)c3ccc(-c4c(-n5cnnn5)ccc(Cl)c4F)c[n+]3[O-])c2)cc1F (single isomer, unassigned) [Example P928] — 560-fold lower, 0.9 nM
- [2H]C([2H])([2H])Nc1ccc(-c2cnn(C(CCOC([2H])([2H])[2H])c3ccc(-c4c(-n5cnnn5)ccc(Cl)c4F)c[n+]3[O-])c2)cc1 (centres unmarked) [Example P278] — 4.6-fold lower, 110 nM
- NC(=O)c1scc(-c2cnn(C(CC3CC3)c3ccc(-c4c(-n5cnnn5)ccc(Cl)c4F)c[n+]3[O-])c2)c1F (single isomer, unassigned) [Example P953] — 38-fold lower, 13.4 nM
- COCC[C@H](c1ccc(-c2c(-n3cnnn3)ccc(Cl)c2F)c[n+]1[O-])n1cc(-c2cc(C(F)(F)F)nn2C)cn1 [Example P619] — 5.7-fold lower, 89.3 nM
- [O-][n+]1ccc(-c2cnn(C(Cn3cccn3)c3ccc(-c4c(-n5cnnn5)ccc(Cl)c4F)c[n+]3[O-])c2)cc1 (centres unmarked) [Example P348] — 19-fold lower, 27.2 nM
- Nc1ccc(-c2cnn(C(Cn3cc(F)cn3)c3ccc(-c4c(C(F)F)ccc(Cl)c4F)c[n+]3[O-])c2)c(F)n1 (single isomer, unassigned) [Example Q26] — within 1.5-fold, 420 nM
- COC(=O)Nc1ccc(-c2cnn(C(CC3CC3C(=O)N3CCCC(c4ccccc4)C3)c3ccc(-c4c(-n5cnnn5)ccc(Cl)c4F)c[n+]3[O-])c2)cc1 (centres unmarked) [Example P221] — within 1.5-fold, 377 nM
- O=C(O)c1cccc(-c2cnn(C(CC3CC3)c3ccc(-c4cc(Cl)ccc4-n4cnnn4)c[n+]3[O-])c2)c1 (centres unmarked) [Example P13] — within 1.5-fold, 536 nM
- COC(=O)Nc1ccc(-c2cnn(C(CC3CCCCO3)c3ccc(-c4c(-n5cnnn5)ccc(Cl)c4F)c[n+]3[O-])c2)cc1 (single isomer, unassigned) [Example P127] — 7.2-fold lower, 70.1 nM
- COC(=O)Nc1ccc(-c2cnn(C(CC(C)C)c3ccc(-c4c(-n5cnnn5)ccc(Cl)c4F)c[n+]3[O-])c2)cc1 (centres unmarked) [Example P179] — 2.8-fold lower, 179 nM
- [O-][n+]1cc(-c2c(-n3cc(Cl)nn3)ccc(Cl)c2F)ccc1[C@@H](CCOC(F)F)n1cc(-c2cnnn2C(F)F)cn1 [Example P668] — 13-fold lower, 39.2 nM
- [O-][n+]1ccc(-c2cnn(C(Cn3cccn3)c3ccc(-c4c(-n5cnnn5)ccc(Cl)c4F)c[n+]3[O-])c2)cc1C(F)F (single isomer, unassigned) [Example P334] — 17-fold lower, 29 nM
- NC(=O)C1CC1CC(c1ccc(-c2c(-n3cnnn3)ccc(Cl)c2F)c[n+]1[O-])n1cc(-c2ccc(N)nc2F)cn1 (single isomer, unassigned) [Example P337] — within 1.5-fold, 556 nM
- NC(=O)c1ccc(-c2cnn(C(CN3CCCC3=O)c3ccc(-c4c(-n5cc(C(F)(F)F)nn5)ccc(Cl)c4F)c[n+]3[O-])c2)cc1F (single isomer, unassigned) [Example P937] — 190-fold lower, 2.7 nM
- [O-][n+]1ccc(-c2cnn(C(Cc3ccc(F)cc3)c3ccc(-c4c(C(F)F)ccc(Cl)c4F)c[n+]3[O-])c2)cc1 (single isomer, unassigned) [Example Q18] — 99-fold lower, 5.1 nM
- Cc1nnc(CC(c2ccc(-c3c(-n4cc(C(F)(F)F)nn4)ccc(Cl)c3F)c[n+]2[O-])n2cc(-c3ccc(C(N)=O)c(F)c3)cn2)o1 (centres unmarked) [Example P927] — 67-fold lower, 7.6 nM
- Cc1cc(-c2cnn(C(Cn3cc(F)cn3)c3ccc(-c4c(-n5cnnn5)ccc(Cl)c4F)c[n+]3[O-])c2)ccn1 (centres unmarked) [Example P474] — 38-fold lower, 13.2 nM
- Cn1cc(-c2cnn([C@H](Cc3ccn(C(F)F)n3)c3ccc(-c4c(-n5cc(C#N)nn5)ccc(Cl)c4F)c[n+]3[O-])c2)c(Cl)n1 [Example P852] — 230-fold lower, 2.2 nM
- [2H]C([2H])([2H])OCCC(c1ccc(-c2c(-n3cnnn3)ccc(Cl)c2F)c[n+]1[O-])n1cc(-c2ccc(NC(=O)OC)cc2)cn1 (centres unmarked) [Example P289] — 37-fold lower, 13.8 nM
- [O-][n+]1cc(-c2c(-n3cnnn3)ccc(Cl)c2F)ccc1C(CC1CC1)n1cc(-c2scnc2C2CC2)cn1 (centres unmarked) [Example P535] — 2.3-fold lower, 220 nM
- O=C(c1ccn(CC(c2ccc(-c3c(-n4cnnn4)ccc(Cl)c3F)c[n+]2[O-])n2cc(-c3cc[n+]([O-])cc3)cn2)n1)N1CCCCC1 (centres unmarked) [Example P447] — 120-fold lower, 4.3 nM
- COC(=O)N(C)CC(c1ccc(-c2c(-n3cnnn3)ccc(Cl)c2F)c[n+]1[O-])n1cc(-c2ccnc(F)c2)cn1 (single isomer, unassigned) [Example P356] — 16-fold lower, 30.7 nM
- CN(CC(c1ccc(-c2c(-n3cnnn3)ccc(Cl)c2F)c[n+]1[O-])n1cc(-c2ccnc(C(F)(F)F)c2)cn1)C(=O)c1ccccc1 (single isomer, unassigned) [Example P409] — 16-fold lower, 32.3 nM
- CCC(c1ccc(-c2c(-n3cnnn3)ccc(Cl)c2F)c[n+]1[O-])n1cc(-c2cc[n+]([O-])cc2)cn1 (single isomer, unassigned) [Example P234] — 1.7-fold lower, 298 nM
- [O-][n+]1cc(-c2c(-n3cnnn3)ccc(Cl)c2F)ccc1[C@@H](CCOC(F)F)n1cc(-c2scnc2Cl)cn1 [Example P582] — 560-fold lower, 0.9 nM
- CN1CCN(CC(c2ccc(-c3c(-n4cnnn4)ccc(Cl)c3F)c[n+]2[O-])n2cc(-c3ccnc(C(F)(F)F)c3)cn2)C1=O (centres unmarked) [Example P432] — 180-fold lower, 2.8 nM
- [O-][n+]1cc(-c2c(-n3cnnn3)ccc(Cl)c2F)ccc1C(CCOC(F)F)n1cc(-c2ccncc2F)cn1 (centres unmarked) [Example P385] — 140-fold lower, 3.5 nM
- [O-][n+]1cc(-c2c(-n3cnnn3)ccc(Cl)c2F)ccc1C(CCOC(F)(F)F)n1cc(-c2ccncn2)cn1 (centres unmarked) [Example P366] — 3.4-fold lower, 151 nM
- COC(=O)Nc1ccc(-c2cnn(C(CCO)c3ccc(-c4c(-n5cnnn5)ccc(Cl)c4F)c[n+]3[O-])c2)cc1 (single isomer, unassigned) [Example P218] — 5.8-fold lower, 87.2 nM
- O=C(C1CC1CC(c1ccc(-c2c(-n3cnnn3)ccc(Cl)c2F)c[n+]1[O-])n1cc(-c2ccncc2)cn1)N1CCC(C2CC2)C1 (centres unmarked) [Example P254] — within 1.5-fold, 376 nM
- Cc1nccc(-c2cnn(C(CC3CC3)c3ccc(-c4c(-n5cnnn5)ccc(Cl)c4F)c[n+]3[O-])c2)n1 (centres unmarked) [Example P368] — within 1.5-fold, 621 nM
- [2H]C([2H])([2H])C([2H])([2H])CC(c1ccc(-c2c(-n3cc(Cl)nn3)ccc(Cl)c2F)c[n+]1[O-])n1cc(-c2ccc(C(N)=O)c(F)c2)cn1 (centres unmarked) [Example P926] — 26-fold lower, 19.2 nM
- COc1cc(C(CC2CC2)n2cc(-c3ccc(C(N)=O)c(F)c3)cn2)[n+]([O-])cc1-c1cc(Cl)ccc1C#N (centres unmarked) [Example Q59] — 20-fold lower, 25.2 nM
- Cn1nc(C(F)(F)F)cc1-c1cnn(C(CC2CC2)c2ccc(-c3c(-n4cnnn4)ccc(Cl)c3F)c[n+]2[O-])c1 (centres unmarked) [Example P548] — within 1.5-fold, 514 nM
- CC(C)(C)c1cc(-c2cnn(C(Cn3cc(F)cn3)c3ccc(-c4c(-n5cnnn5)ccc(Cl)c4F)c[n+]3[O-])c2)ccn1 (centres unmarked) [Example P395] — 20-fold lower, 25.5 nM
- NC(=O)C1CC1CC(c1ccc(-c2c(-n3cnnn3)ccc(Cl)c2F)c[n+]1[O-])n1cc(-c2cc[n+]([O-])cc2)cn1 (single isomer, unassigned) [Example P283] — 6.8-fold lower, 74.5 nM
- O=C(O)c1ccc(-c2cnn(C(Cc3nccs3)c3ccc(-c4c(-n5cc(C(F)(F)F)nn5)ccc(Cl)c4F)c[n+]3[O-])c2)cc1F (centres unmarked) [Example P941] — 41-fold lower, 12.2 nM
- COc1cc(C(CC2CC2C(N)=O)n2cc(-c3ccc(N)nc3C)cn2)[n+]([O-])cc1-c1c(-n2cnnn2)ccc(Cl)c1F (centres unmarked) [Example P247] — 87-fold lower, 5.8 nM
- [O-][n+]1cc(-c2c(-n3cnnn3)ccc(Cl)c2F)ccc1[C@@H](CCOC(F)F)n1cc(-c2cnnn2C(F)F)cn1 [Example P676] — 43-fold lower, 11.8 nM
- COCC(=O)Nc1ccc(-c2cnn(C(CC3CC3)c3ccc(-c4c(-n5cnnn5)ccc(Cl)c4F)c[n+]3[O-])c2)cc1 (centres unmarked) [Example P131] — 2.6-fold lower, 192 nM
- CN(CC(c1ccc(-c2c(-n3cnnn3)ccc(Cl)c2F)c[n+]1[O-])n1cc(-c2ccnc(F)c2)cn1)C(=O)c1ccccc1 (centres unmarked) [Example P424] — 18-fold lower, 28.6 nM
